Patent US12336536B2, “Method for controlling herbicide resistant or tolerant weeds” (BASF Agro B.V., priority 2015, dated 2025)

How the values were obtained:
BROST = assay: Greenhouse test, solo and combination, post-emergence, 20 DAT; format: in vivo, Bromus sterilis
Protocol: (§1) The test plants have been seeded, separately for each species, in plastic containers in sandy loamy soil containing 5% of organic matter.
(§2) For the post-emergence treatment, the plants were first grown to the 2 leaf station (GS 12) and applied at GS 12-19 depending on the species. The herbicidal compositions were suspended or emulsified in water as distribution medium and sprayed using finely distributing nozzles.
(§3) The plants have been cultivated due to their individual requirements at 10-25° C. and 20-35° C. The plants were irrigated due to their necessity.
(§4) The racemic mixture (±)-2-exo-(2-Methylbenzyloxy)-1-methyl-4-isopropyl-7-oxabicyclo[2.2.1]heptane was used as herbicide A and formulated as emulsifiable concentrate having an active ingredient concentration of 750 g/l.
(§5) Cyhalofop-butyl (herbicide B.5) was used as an emulsifiable concentrate (EC) formulation having an active ingredient concentration of 200 g/l.
(§6) Metsulfuron-methyl (herbicide B.53) was used as a water soluble granule (SG) formulation having an active ingredient concentration of 20%.
(§7) Bispyribac-sodium (herbicide B.23) was used as a soluble concentrate (SL) formulation having an active ingredient concentration of 408 g/l.
(§8) Quizalofop-P-ethyl (herbicide B.217) was used as a suspension concentrate (SC) formulation having an active ingredient concentration of 106 g/l.
(§9) In the following experiments, the herbicidal activity for the individual herbicide compounds (solo and mixture applications) was assessed 20 days after treatment (DAT).
(§10) The evaluation for the damage on undesired weeds caused by the chemical compositions was carried out using a scale from 0 to 100%, compared to the untreated control plants. Here, 0 means no damage and 100 means complete destruction of the plants.
(§11) The plants used in the greenhouse experiments belonged to the following species:
(§12) E=X+Y−(X·Y/100) • where X=effect in percent using herbicide A at an application rate a; • Y=effect in percent using herbicide B at application rate b; • E=expected effect (in %) of herbicide A+herbicide B at application rates a+b.
(§13) The value E corresponds to the effect (plant damage or injury) which is to be expected if the activity of the individual compounds is additive. If the observed effect is higher than the value E calculated according to the Colby equation, a synergistic effect is present.
(§14) Tables 3 to 6 below relate the herbicidal activity, in greenhouse trials, of the individual actives and the combination applied at different rates and ratios, in post-emergence application at 20 days after treatment (DAT).

[1] = system: blackgrass (ALOMY) biotypes; assay: Greenhouse test, control of resistant weed biotypes, post-emergence, blackgrass; format: in vivo, Alopecurus myosuroides; conditions: for Herbicidal activity: post-emergence, scale 0 to 100
Protocol: (§15) The herbicidal activity of herbicide A on resistant weed biotypes was tested in comparison with certain commercial herbicides by the following greenhouse experiments:
(§16) The culture containers used were plastic flowerpots containing loamy sand with approximately 3.0% of humus as the substrate. The seeds of the test plants were sown separately for each species. Six blackgrass (ALOMY) (10-103, 10-170, 09-591, 10-123, 11-215, 11-146) and six ryeg rass (LOLMU) (12-166, 12-143, 12-165, 12-307, 13-304, 13-313) biotypes with varying degrees of resistance towards a range of modes of action according to the HRAC (Herbicide Resistance Action Committee) classification on mode of action 2010 (see e.g http://www.hracglobal.com/pages/classificationofherbicidesiteofaction.aspx) were tested alongside two non-resistant biotypes (14-116 and 13-243), see Tables 1 and 2 below.
(§17) For the post-emergence treatment, the test plants were first grown to a height of 3 to 15 cm, depending on the plant habit, and only then treated with the active ingredients which had been suspended or emulsified in water. For this purpose, the test plants were either sown directly and grown in the same containers, or they were first grown separately as seedlings and transplanted into the test containers a few days prior to treatment.
(§18) Depending on the species, the plants were kept at 10-25° C. or 20-35° C. The test period extended over 2 to 4 weeks. During this time, the plants were tended, and their response to the individual treatments was evaluated.
(§19) The racemic mixture (±)-2-exo-(2-Methylbenzyloxy)-1-methyl-4-isopropyl-7-oxabicyclo[2.2.1]heptane was used as herbicide A and formulated as emulsifiable concentrates with an active ingredient concentration of 50 g/l, 100 g/l or 750 g/l respectively.
(§20) Flufenacet was used as a commercial concentrated solution formulation having an active ingredient concentration of 500 g/l (Cadou).
(§21) Imazamox was used as a water dispersible granule (70% WG).
(§22) Evaluation of the herbicidal activity was carried out using a scale from 0 to 100. 100 means complete destruction of at least the aerial moieties, and 0 means no damage, or normal course of growth. A good herbicidal activity is given at values of at least 70 and a very good herbicidal activity is given at values of at least 85.

LOLRI = assay: Greenhouse test, solo and combination, post-emergence, 20 DAT; format: in vivo, Lolium rigidum
Protocol: as §1, §2, §3, §4, §5, §6, §7, §8, §9, §10, §11, §12, §13, §14

[2] = system: ryegrass (LOLMU) biotypes; assay: Greenhouse test, control of resistant weed biotypes, post-emergence, ryegrass; format: in vivo, Lolium multiflorum; conditions: for Herbicidal activity: post-emergence, scale 0 to 100
Protocol: as §15, §16, §17, §18, §19, §20, §21, §22

GALAP = assay: Greenhouse test, solo and combination, post-emergence, 20 DAT; format: in vivo, Galium aparine
Protocol: as §1, §2, §3, §4, §5, §6, §7, §8, §9, §10, §11, §12, §13, §14

ALOMY = assay: as above; format: in vivo, Alopecurus myosuroides
Protocol: as §1, §2, §3, §4, §5, §6, §7, §8, §9, §10, §11, §12, §13, §14

PAPRH = assay: as above; format: in vivo, Papaver rhoeas
Protocol: as §1, §2, §3, §4, §5, §6, §7, §8, §9, §10, §11, §12, §13, §14

## (±)-2-exo-(2-Methylbenzyloxy)-1-methyl-4-isopropyl-7-oxabicyclo[2.2.1]heptane [Herbicide A]
BROST; solo application 62.5 g ai/ha
  Herbicidal activity: 0%
BROST; solo application 125 g ai/ha
  Herbicidal activity: 0%
BROST; solo application 250 g ai/ha
  Herbicidal activity: 15%
BROST; solo application 500 g ai/ha
  Herbicidal activity: 25%
[1]; BT 09-591, resistant HRAC group A, B, K, 125 g ai/ha
  Herbicidal activity: 80
[1]; BT 09-591, resistant HRAC group A, B, K, 250 g ai/ha
  Herbicidal activity: 95
[1]; BT 10-103, resistant HRAC group A, B, K, 125 g ai/ha
  Herbicidal activity: 80
[1]; BT 10-103, resistant HRAC group A, B, K, 250 g ai/ha
  Herbicidal activity: 95
[1]; BT 10-123, resistant HRAC group A, B, C, 125 g ai/ha
  Herbicidal activity: 85
[1]; BT 10-123, resistant HRAC group A, B, C, 250 g ai/ha
  Herbicidal activity: 90
[1]; BT 10-170, resistant HRAC group A, B, K, 125 g ai/ha
  Herbicidal activity: 85
[1]; BT 10-170, resistant HRAC group A, B, K, 250 g ai/ha
  Herbicidal activity: 90
[1]; BT 11-146, resistant HRAC group K, 125 g ai/ha
  Herbicidal activity: 90
[1]; BT 11-146, resistant HRAC group K, 250 g ai/ha
  Herbicidal activity: 95
[1]; BT 11-215, resistant HRAC group A, B, C, E, K, 125 g ai/ha
  Herbicidal activity: 80
[1]; BT 11-215, resistant HRAC group A, B, C, E, K, 250 g ai/ha
  Herbicidal activity: 95
[1]; BT 14-116, Sensitive standard, 125 g ai/ha
  Herbicidal activity: 65
[1]; BT 14-116, Sensitive standard, 250 g ai/ha
  Herbicidal activity: 100
[1]; post-emergence treatment, various biotypes of blackgrass (ALOMY) with varying degrees of resistance
  herbicidal activity (summary in words): very good herbicidal activity (a very good herbicidal activity is given at values of at least 85)
LOLRI; solo application 62.5 g ai/ha
  Herbicidal activity: 15%
LOLRI; solo application 125 g ai/ha
  Herbicidal activity: 30%
LOLRI; solo application 250 g ai/ha
  Herbicidal activity: 50%
[2]; BT 12-143, resistant HRAC group A, B, C, E, K, 125 g ai/ha
  Herbicidal activity: 80
[2]; BT 12-143, resistant HRAC group A, B, C, E, K, 250 g ai/ha
  Herbicidal activity: 95
[2]; BT 12-165, resistant HRAC group A, B, E, K, 125 g ai/ha
  Herbicidal activity: 95
[2]; BT 12-165, resistant HRAC group A, B, E, K, 250 g ai/ha
  Herbicidal activity: 100
[2]; BT 12-166, resistant HRAC group A, B, E, K, 125 g ai/ha
  Herbicidal activity: 90
[2]; BT 12-166, resistant HRAC group A, B, E, K, 250 g ai/ha
  Herbicidal activity: 90
[2]; BT 12-307, resistant HRAC group B, F, K, O, 125 g ai/ha
  Herbicidal activity: 70
[2]; BT 12-307, resistant HRAC group B, F, K, O, 250 g ai/ha
  Herbicidal activity: 90
[2]; BT 13-243, Sensitive standard, 125 g ai/ha
  Herbicidal activity: 75
[2]; BT 13-243, Sensitive standard, 250 g ai/ha
  Herbicidal activity: 90
[2]; BT 13-304, resistant HRAC group A, B, E, K, 125 g ai/ha
  Herbicidal activity: 85
[2]; BT 13-304, resistant HRAC group A, B, E, K, 250 g ai/ha
  Herbicidal activity: 95
[2]; BT 13-313, resistant HRAC group A, B, C, E, K, 125 g ai/ha
  Herbicidal activity: 70
[2]; BT 13-313, resistant HRAC group A, B, C, E, K, 250 g ai/ha
  Herbicidal activity: 95
[2]; post-emergence treatment, various biotypes of ryegrass (LOLMU) with varying degrees of resistance
  herbicidal activity (summary in words): very good herbicidal activity (a very good herbicidal activity is given at values of at least 85)
GALAP; solo application 62.5 g ai/ha
  Herbicidal activity: 25%
GALAP; solo application 125 g ai/ha
  Herbicidal activity: 35%
GALAP; solo application 250 g ai/ha
  Herbicidal activity: 35%
GALAP; solo application 500 g ai/ha
  Herbicidal activity: 45%
ALOMY; solo application 62.5 g ai/ha
  Herbicidal activity: 30%
ALOMY; solo application 125 g ai/ha
  Herbicidal activity: 55%
ALOMY; solo application 250 g ai/ha
  Herbicidal activity: 70%
ALOMY; solo application 500 g ai/ha
  Herbicidal activity: 80%
PAPRH; solo application 62.5 g ai/ha
  Herbicidal activity: 0%
PAPRH; solo application 250 g ai/ha
  Herbicidal activity: 40%
PAPRH; solo application 500 g ai/ha
  Herbicidal activity: 60%
